Source: US12459958B2, “Tricyclic compounds as HPK1 inhibitor and the use thereof” (BEIGENE, LTD., priority 2019, dated 2025)

These compounds were tested against T1, HPK1 kinase (aa1-346, Life Technologies) (Homo sapiens, UniProt Q92918) (assay: HPK Kinase Activity Assay at 1 mM ATP (TR-FRET)). Settings: HPK1 kinase 40 nM, 0.5 μM STK1 substrate, read-out: Enzymatic activity IC50.
T1 construct: HPK1 kinase (aa1-346, Life Technologies); purchased Life Technologies
T1 sequence (Q92918 1-346): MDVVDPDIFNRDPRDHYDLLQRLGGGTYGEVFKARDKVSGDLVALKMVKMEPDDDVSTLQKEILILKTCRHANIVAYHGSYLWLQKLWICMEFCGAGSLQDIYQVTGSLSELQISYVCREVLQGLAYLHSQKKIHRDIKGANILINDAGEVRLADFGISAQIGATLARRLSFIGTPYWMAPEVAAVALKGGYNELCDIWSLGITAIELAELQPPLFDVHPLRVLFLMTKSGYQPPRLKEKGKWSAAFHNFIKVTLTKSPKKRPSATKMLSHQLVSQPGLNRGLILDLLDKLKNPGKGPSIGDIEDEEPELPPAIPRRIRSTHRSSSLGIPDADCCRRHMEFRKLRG
Format: biochemical
Protocol: HPK Kinase Activity Assay at 1 mM ATP
Compounds disclosed herein were tested for inhibition of HPK1 kinase (aa1-346, Life Technologies) activity in assays based on the time-resolved fluorescence-resonance energy transfer (TR-FRET) methodology. The assays were carried out in 384-well low volume black plates in a reaction mixture containing HPK1 kinase (40 nM), 1 mM ATP, 0.5 μM STK1 substrate and 0-10 μM compound in buffer containing 50 mM HEPES, 0.01% BSA, 0.1 mM Orthovanadate, 10 mM MgCl2, 1 mM DTT, pH=7.0, 0.005% Tween-20. The kinase was incubated with the compounds disclosed herein or DMSO for 60 minutes at room temperature and the reaction was initiated by the addition of ATP and STK1 substrate. After reaction at room temperature for 120 minutes, an equal volume of stop/detection solution was added according to the manufacture's instruction (CisBio). The stop/detection solution contained STK Antibody-Cryptate and XL665-conjugated streptavidin in Detection Buffer. The TR-FRET signals (ratio of fluorescence emission at 665 nm over emission at 620 nm with excitation at 337 nm wavelength) were recorded on a PHERAstar FS plate reader (BMG Labtech). Phosphorylation of STK1 substrate led to the binding of STK Antibody-Cryptate to the biotinylated STK1 substrate, which places fluorescent donor (Eu^3+ crypate) in close proximity to the accepter (Streptavidin-XL665), thus resulting in a high degree of fluorescence resonance energy transfer. The inhibition of HPK1 in presence of increasing concentrations of compounds was calculated based on the ratio of fluorescence at 665 nm to that at 620 nm. The IC50 for each compound was derived from fitting the data to the four-parameter logistic equation by Graphpad Prism software.

First: Cc1cc(-c2cnc3[nH]cc(-c4ccc(C(=O)N(C)C)cc4)c3c2)cc2c1N1CCN(C)CC1CC2 (stereo not drawn) [Example 1, 4-(5-(3,10-dimethyl-2,3,4,4a,5,6-hexahydro-1H-pyrazino[1,2-a]quinolin-8-yl)-1H-pyrrolo[2,3-b]pyridin-3-yl)-N,N-dimethylbenzamide]
Second: Cc1cc(-c2cnc3[nH]cc(-c4ccc(C(=O)N(C)C[C@H](C)O)cc4)c3c2)cc2c1N1CCN(C)C[C@H]1CC2 [Example 2A, 4-(5-((R)-3,10-dimethyl-2,3,4,4a,5,6-hexahydro-1H-pyrazino[1,2-a]quinolin-8-yl)-1H-pyrrolo[2,3-b]pyridin-3-yl)-N—((S)-2-hydroxypropyl)-N-methylbenzamide]
The IC50 of the first is 2.2-fold higher: 0.031 µM for the first, 0.014 µM for the second.

`Cc1cc(-c2cnc3[nH]cc(-c4ccc(C(=O)N(C)C[C@H](C)O)cc4)c3c2)cc2c1N1CCN(C)C[C@@H]1CC2` [Example 2B, 4-(5-((S)-3,10-dimethyl-2,3,4,4a,5,6-hexahydro-1H-pyrazino[1,2-a]quinolin-8-yl)-1H-pyrrolo[2,3-b]pyridin-3-yl)-N—((S)-2-hydroxypropyl)-N-methylbenzamide] and `Cc1cc(-c2cnc3[nH]cc(-c4ccc(C(=O)N(C)C[C@@H](C)O)cc4)c3c2)cc2c1N1CCN(C)C[C@H]1CC2` [Example 3A, 4-(5-((R)-3,10-dimethyl-2,3,4,4a,5,6-hexahydro-1H-pyrazino[1,2-a]quinolin-8-yl)-1H-pyrrolo[2,3-b]pyridin-3-yl)-N—((R)-2-hydroxypropyl)-N-methylbenzamide] are within 1.5-fold of each other in IC50: 0.019 µM for the first, 0.021 µM for the second.

`Cc1cc(-c2cnc3[nH]cc(-c4ccc(C(=O)N(C)C[C@@H](C)O)cc4)c3c2)cc2c1N1CCN(C)C[C@@H]1CC2` [Example 3B, 4-(5-((S)-3,10-dimethyl-2,3,4,4a,5,6-hexahydro-1H-pyrazino[1,2-a]quinolin-8-yl)-1H-pyrrolo[2,3-b]pyridin-3-yl)-N—((R)-2-hydroxypropyl)-N-methylbenzamide] and `Cc1cc(-c2cnc3[nH]cc(-c4ccc(C(=O)N(C)C[C@@H]5CCOC5)cc4)c3c2)cc2c1N1CCN(C)C[C@H]1CC2` [Example 4A, 4-(5-((R)-3,10-dimethyl-2,3,4,4a,5,6-hexahydro-1H-pyrazino[1,2-a]quinolin-8-yl)-1H-pyrrolo[2,3-b]pyridin-3-yl)-N-methyl-N—(((S)-tetrahydrofuran-3-yl)methyl)benzamide] are within 1.5-fold of each other in IC50: 0.018 µM for the first, 0.014 µM for the second.

Going from `Cc1cc(-c2cnc3[nH]cc(-c4ccc(C(=O)N(C)C[C@@H]5CCOC5)cc4)c3c2)cc2c1N1CCN(C)C[C@@H]1CC2` [Example 4B, 4-(5-((S)-3,10-dimethyl-2,3,4,4a,5,6-hexahydro-1H-pyrazino[1,2-a]quinolin-8-yl)-1H-pyrrolo[2,3-b]pyridin-3-yl)-N-methyl-N—(((S)-tetrahydrofuran-3-yl)methyl)benzamide] to `Cc1cc(-c2cnc3[nH]cc(-c4ccc(C(=O)N(C)C[C@H]5CCOC5)cc4)c3c2)cc2c1N1CCN(C)C[C@H]1CC2` [Example 5A, 4-(5-((R)-3,10-dimethyl-2,3,4,4a,5,6-hexahydro-1H-pyrazino[1,2-a]quinolin-8-yl)-1H-pyrrolo[2,3-b]pyridin-3-yl)-N-methyl-N—(((R)-tetrahydrofuran-3-yl)methyl)benzamide], the IC50 rises from 0.015 µM to 0.032 µM (2.1-fold).

Compared with `Cc1cc(-c2cnc3[nH]cc(-c4ccc(C(=O)N(C)C[C@H]5CCOC5)cc4)c3c2)cc2c1N1CCN(C)C[C@@H]1CC2` [Example 5B, 4-(5-((S)-3,10-dimethyl-2,3,4,4a,5,6-hexahydro-1H-pyrazino[1,2-a]quinolin-8-yl)-1H-pyrrolo[2,3-b]pyridin-3-yl)-N-methyl-N—(((R)-tetrahydrofuran-3-yl)methyl)benzamide], `Cc1cc(-c2cnc3[nH]cc(-c4ccc(C(=O)N(C)C[C@@H]5CCOC5)cc4)c3n2)cc2c1N1CCN(C)C[C@H]1CC2` [Example 10A, 4-(2-((R)-3,10-dimethyl-2,3,4,4a,5,6-hexahydro-1H-pyrazino[1,2-a]quinolin-8-yl)-5H-pyrrolo[2,3-b]pyrazin-7-yl)-N-methyl-N—(((S)-tetrahydrofuran-3-yl)methyl)benzamide] is 1.6-fold lower in IC50: 0.027 µM for the first, 0.017 µM for the second. The second is the more potent here.

`Cc1cc(-c2c[nH]c3ncc(-c4cc(C)c5c(c4)CC[C@@H]4CN(C)CCN54)nc23)ccc1C(=O)N(C)C` [Example 6A, (R)-4-(2-(3,10-dimethyl-2,3,4,4a,5,6-hexahydro-1H-pyrazino[1,2-a]quinolin-8-yl)-5H-pyrrolo[2,3-b]pyrazin-7-yl)-N,N,2-trimethylbenzamide] and `Cc1cc(-c2c[nH]c3ncc(-c4cc(C)c5c(c4)CC[C@H]4CN(C)CCN54)nc23)ccc1C(=O)N(C)C` [Example 6B, (S)-4-(2-(3,10-dimethyl-2,3,4,4a,5,6-hexahydro-1H-pyrazino[1,2-a]quinolin-8-yl)-5H-pyrrolo[2,3-b]pyrazin-7-yl)-N,N,2-trimethylbenzamide] are within 1.5-fold of each other in IC50: 0.036 µM for the first, 0.047 µM for the second.

`Cc1cc(-c2cnc3[nH]cc(-c4ccc(C(=O)N(C)C)cc4)c3n2)cc2c1N1CCN(C)C[C@H]1CC2` [Example 7A, (R)-4-(2-(3,10-dimethyl-2,3,4,4a,5,6-hexahydro-1H-pyrazino[1,2-a]quinolin-8-yl)-5H-pyrrolo[2,3-b]pyrazin-7-yl)-N,N-dimethylbenzamide] and `Cc1cc(-c2cnc3[nH]cc(-c4ccc(C(=O)N(C)C)cc4)c3n2)cc2c1N1CCN(C)C[C@@H]1CC2` [Example 7B, (S)-4-(2-(3,10-dimethyl-2,3,4,4a,5,6-hexahydro-1H-pyrazino[1,2-a]quinolin-8-yl)-5H-pyrrolo[2,3-b]pyrazin-7-yl)-N,N-dimethylbenzamide] are within 1.5-fold of each other in IC50: 0.023 µM for the first, 0.022 µM for the second.

`Cc1cc(-c2c[nH]c3ncc(-c4cc(C)c5c(c4)CC[C@@H]4CN(C)CCN54)nc23)ccc1C(=O)N1CC2(COC2)C1` [Example 8A, (R)-(4-(2-(3,10-dimethyl-2,3,4,4a,5,6-hexahydro-1H-pyrazino[1,2-a]quinolin-8-yl)-5H-pyrrolo[2,3-b]pyrazin-7-yl)-2-methylphenyl)(2-oxa-6-azaspiro[3.3]heptan-6-yl)methanone] and `Cc1cc(-c2c[nH]c3ncc(-c4cc(C)c5c(c4)CC[C@H]4CN(C)CCN54)nc23)ccc1C(=O)N1CC2(COC2)C1` [Example 8B, (S)-(4-(2-(3,10-dimethyl-2,3,4,4a,5,6-hexahydro-1H-pyrazino[1,2-a]quinolin-8-yl)-5H-pyrrolo[2,3-b]pyrazin-7-yl)-2-methylphenyl)(2-oxa-6-azaspiro[3.3]heptan-6-yl)methanone] are within 1.5-fold of each other in IC50: 0.058 µM for the first, 0.061 µM for the second.

`Cc1cc(-c2cnc3[nH]cc(-c4ccc(C(=O)N5CC6(COC6)C5)cc4)c3n2)cc2c1N1CCN(C)C[C@H]1CC2` [Example 9A, (R)-(4-(2-(3,10-dimethyl-2,3,4,4a,5,6-hexahydro-1H-pyrazino[1,2-a]quinolin-8-yl)-5H-pyrrolo[2,3-b]pyrazin-7-yl)phenyl)(2-oxa-6-azaspiro[3.3]heptan-6-yl)methanone] and `Cc1cc(-c2cnc3[nH]cc(-c4ccc(C(=O)N5CC6(COC6)C5)cc4)c3n2)cc2c1N1CCN(C)C[C@@H]1CC2` [Example 9B, (S)-(4-(2-(3,10-dimethyl-2,3,4,4a,5,6-hexahydro-1H-pyrazino[1,2-a]quinolin-8-yl)-5H-pyrrolo[2,3-b]pyrazin-7-yl)phenyl)(2-oxa-6-azaspiro[3.3]heptan-6-yl)methanone] are within 1.5-fold of each other in IC50: 0.017 µM for the first, 0.021 µM for the second.
